Publication PMC5356695, “A phase 1 study of oral ridaforolimus in pediatric patients with advanced solid tumors” (Oncotarget, 2016)

What was measured:
[1] = design: method as in PMID 22037923; settings: cited from earlier work
[2] = tested on: heavily pretreated solid tumors; design: method as in PMID 23659969; settings: cited from earlier work
advanced solid tumors = assay: Antitumor activity, investigator assessment by RECIST v1.1; assay type: in vivo, human
Procedure: All patients were to have computed tomography or magnetic resonance imaging scans at baseline, every 2 cycles during treatment, and at the time of treatment discontinuation. Local investigator assessment of treatment response was performed using RECIST v1.1 [43].

clinical = settings: for AUC(0-t) / half-life / concentration at 4 h / concentration at 8 h: human, whole blood
Procedure: Whole blood samples (2 mL each) for pharmacokinetic analyses were collected at the following time points: <5 minutes before dosing on days 1 through 5 and at 0.5, 1, 2, 4, 8, 24, and 72 hours after drug administration on day 5 of the first week of the first treatment cycle. Blood concentrations of ridaforolimus were determined using a validated liquid chromatography/tandem mass spectrometry assay as in previous ridaforolimus studies (Charles River Laboratories, Shrewsbury, MA). The pharmacokinetic parameters of AUC0–24h and elimination half-life (t1/2) were determined by noncompartmental modeling using WinNonlin software (Pharsight, Certara, Princeton, NJ).

[3] = design: method as in earlier work; settings: 40 mg once daily 5 days per week, ref data on file with ARIAD Pharmaceuticals, Inc./Merck & Co.; cited from earlier work
[4] = 1 patient with pineoblastoma, 22 mg/m^2

CO[C@H]1C[C@@H]2CC[C@@H](C)[C@@](O)(O2)C(=O)C(=O)N2CCCC[C@H]2C(=O)O[C@H]([C@H](C)C[C@@H]2CC[C@@H](OP(C)(C)=O)[C@H](OC)C2)CC(=O)[C@H](C)/C=C(\C)[C@@H](O)[C@@H](OC)C(=O)[C@H](C)C[C@H](C)/C=C/C=C/C=C/1C [ridaforolimus]
Blood–brain barrier passage [1]: crosses the blood–brain barrier
Stable disease in patients with central nervous system tumors ([2]; intravenous 8-16 mg/m^2): 4 of 6
Stable disease in patients with sarcomas ([2]; intravenous 8-16 mg/m^2): 2 of 8
Patients with stable disease / clinical benefit ([2]; intravenous 8-16 mg/m^2 daily for 5 consecutive days every other week, of 15 evaluable (40%)): 6 patients
DLTs ([2]; intravenous 8–16 mg/m^2 daily for 5 consecutive days every other week): no DLTs were observed
Patients discontinued due to progressive disease (advanced solid tumors; 33 mg/m^2 (n = 13), 77%): 10 patients
Progression-free survival (advanced solid tumors; 1 patient with diffuse intrinsic pontine glioma): > 42 months
Duration of stable disease (advanced solid tumors; 1 patient with diffuse intrinsic pontine glioma, 33 mg/m^2, as of January 2016): 46 cycles
Duration of stable disease (advanced solid tumors; [4]): 12 cycles
Progression-free survival (advanced solid tumors; [4]): 12.8 months
Partial or complete response (advanced solid tumors; all patients, N = 20): None of the patients had a partial or complete response
Patients with evidence of clinical benefit (advanced solid tumors; of the 20 treated pediatric patients (10%)): 2 patients
Exposure (day 5 AUC0–24h) higher than adult target level (clinical; 28 mg/m^2 vs adult RP2D 40 mg (1,739 h•ng/mL)): approximately 34%
BSADN AUC, lower bound of 90% 1-sided confidence interval for geometric mean (clinical; 33 mg/m^2): 61.2 h•ng•m^2/(mL•mg)
C4h, lower bound of 90% 1-sided confidence interval for geometric mean (clinical; 33 mg/m^2): 154 ng/mL
C8h, lower bound of 90% 1-sided confidence interval for geometric mean (clinical; 33 mg/m^2): 100 ng/mL
Day 5 AUC0–24h, lower bound of 90% 1-sided confidence interval for geometric mean (clinical; 33 mg/m^2): 2,020 h•ng/mL
t1/2, lower bound of 90% 1-sided confidence interval for geometric mean (clinical; 33 mg/m^2): 23.0 h
BSADN AUC (AUC normalized by BSA-adjusted dose), geometric mean (clinical; 33 mg/m^2, n = 11): 69.8 h•ng•m^2/(mL•mg)
Exposure (day 5 AUC0–24h) higher than adult target level (clinical; 33 mg/m^2 vs adult RP2D 40 mg (1,739 h•ng/mL)): ~31%
AUC(0-t) (clinical; oral, 22 mg/m2): 1340 ng·h/mL
half-life (clinical; oral, 22 mg/m2, t1/2, arithmetic mean (SD), 22 mg/m^2, n = 3): 25.5 h
half-life (clinical; oral, 22 mg/m2, t1/2, geometric mean (CV%), 22 mg/m^2, n = 3): 25.5 h
half-life (clinical; oral, 22 mg/m2, t1/2, median (range), 22 mg/m^2, n = 3): 24.5 h
concentration at 4 h (clinical; oral, 22 mg/m^2, C4h, arithmetic mean (SD), day 5, 22 mg/m^2, n = 4): 139 ng/mL
concentration at 4 h (clinical; oral, 22 mg/m^2, C4h, geometric mean (CV%), day 5, 22 mg/m^2, n = 4): 131 ng/mL
concentration at 8 h (clinical; oral, 22 mg/m^2, C8h, arithmetic mean (SD), day 5, 22 mg/m^2, n = 4): 74 ng/mL
concentration at 8 h (clinical; oral, 22 mg/m^2, C8h, geometric mean (CV%), day 5, 22 mg/m^2, n = 4): 71 ng/mL
AUC(0-t) (clinical; oral, 28 mg/m2): 2330 ng·h/mL
half-life (clinical; oral, 28 mg/m2, t1/2, arithmetic mean (SD), 28 mg/m^2, n = 3): 28.2 h
half-life (clinical; oral, 28 mg/m2, t1/2, geometric mean (CV%), 28 mg/m^2, n = 3): 27.2 h
half-life (clinical; oral, 28 mg/m2, t1/2, median (range), 28 mg/m^2, n = 3): 26.5 h
concentration at 4 h (clinical; oral, 28 mg/m^2, C4h, arithmetic mean (SD), day 5, 28 mg/m^2, n = 3): 228 ng/mL
concentration at 4 h (clinical; oral, 28 mg/m^2, C4h, geometric mean (CV%), day 5, 28 mg/m^2, n = 3): 227 ng/mL
concentration at 8 h (clinical; oral, 28 mg/m^2, C8h, arithmetic mean (SD), day 5, 28 mg/m^2, n = 3): 119 ng/mL
concentration at 8 h (clinical; oral, 28 mg/m^2, C8h, geometric mean (CV%), day 5, 28 mg/m^2, n = 3): 116 ng/mL
AUC(0-t) (clinical; oral, 33 mg/m2): 2280 ng·h/mL
half-life (clinical; oral, 33 mg/m2, t1/2, arithmetic mean (SD), 33 mg/m^2, n = 9): 26.9 h
half-life (clinical; oral, 33 mg/m2, t1/2, geometric mean (CV%), 33 mg/m^2, n = 9): 26 h
half-life (clinical; oral, 33 mg/m2, t1/2, median (range), 33 mg/m^2, n = 9): 24.9 h
concentration at 4 h (clinical; oral, 33 mg/m^2, C4h, arithmetic mean (SD), day 5, 33 mg/m^2, n = 11): 200 ng/mL
concentration at 4 h (clinical; oral, 33 mg/m^2, C4h, geometric mean (CV%), day 5, 33 mg/m^2, n = 11): 184 ng/mL
concentration at 8 h (clinical; oral, 33 mg/m^2, C8h, arithmetic mean (SD), day 5, 33 mg/m^2, n = 12): 118 ng/mL
concentration at 8 h (clinical; oral, 33 mg/m^2, C8h, geometric mean (CV%), day 5, 33 mg/m^2, n = 12): 113 ng/mL
half-life (clinical; oral, Mean (geometric) elimination half-lives, independent of dose level): 26 to 27 h
Steady state from trough concentrations (predose days 1 through 5) (clinical; oral once daily): steady-state concentrations had been achieved at day 5
Lag before absorption after dosing (clinical; oral, all dose levels): approximately 2 hours
Time of highest blood concentrations after dosing (clinical; oral, all dose levels): ~4 h
Day 5 AUC0–24h in adults, estimated geometric mean [3]: 1,739 h•ng/mL
